Broadly, the Ki is a measure of affinity in units of concentration, obtained from inhibition or displacement. Lower therefore signals a stronger hold on the target. The EC50 is the midpoint of the concentration-response curve. High values mean lower potency in that assay, low ones higher potency in that assay.

Results on 13 compounds are retold here after US10604489B2, “Compounds for the treatment of pain” (priority 2018, dated 2020).

Data set [1] concerns Male Sprague-Dawley rats. The conditions noted are these: maximum pCO2 within 2 hours of administration, rat; for <60 mmHg @ 10X CFA MEMD: dose 10× CFA MEMD.
In a further data set the target is μ-receptor (Homo sapiens (Human), UniProt P35372). Description: Receptor binding, competitive displacement of [3H]DAMGO. The conditions noted are these: 0.25 nM [3H]DAMGO, CHO cell membrane protein, 60 min at 25° C. The method, boiled down:
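Membranes from CHO cells stably expressing cloned human μ-opioid receptor incubated 60 min at 25 °C with 12 compound concentrations and 0.25 nM [3H]DAMGO in 50 mM Tris-HCl pH 7.5; nonspecific binding with 10 μM naloxone. Filtration and scintillation counting; Ki from IC50 by Cheng-Prusoff.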
For orientation: Displacement assays read how much labelled ligand stays bound in the presence of the test substance.

In a further data set the target is human μ opioid receptor (Homo sapiens (Human), UniProt P35372). Description: Functional activity ([35S]GTPγS binding). The data set is classed as biochemical. The conditions noted are these: [35S]GTPγS 0.080 nM, CHO cell membranes, 60 min at 30° C., filtration. The method, boiled down:
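Membranes from stably transfected CHO cells (7.5 μg) incubated with 12 test-compound concentrations and 0.080 nM [35S]GTPγS in 50 mM Tris-HCl pH 7.4, 3 mM MgCl2, 0.2 mM EGTA, 3 μM GDP, 100 mM NaCl, 60 min at 30° C. Nonspecific binding defined with 10 μM GTPγS; bound label collected by filtration and scintillation counting.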
In general terms: GTPγS resists hydrolysis and so accumulates on activated G proteins.

The test system of data set [2] is Male Sprague-Dawley rats. Description: animal or person. The data set is classed as in vivo, rat. The conditions noted are these: rat, read-out: MEMD SC CFA.
[3] abbreviates: dose 100× CFA MEMD, subcutaneous.
Where [4] appears, read: sc, minimum dose at which maximal reversal of hind paw weight bearing (50±0.5%) was achieved, subcutaneous administration.

Like-named read-outs stand apart in the source and are kept apart here.

Take `COC1(c2ccnc(C(N)=O)c2)C2CCCC1CN(C)C2.Cl` [Compound 43, 4-((1R,5S,9r)-9-methoxy-3-methyl-3-azabicyclo[3.3.1]nonan-9-yl)picolinamide hydrochloride]: in the data set with Male Sprague-Dawley rats [1] (subcutaneous), the “<60 mmHg @ 10X CFA MEMD” value is “+ (resulted in a maximum pCO2 value of less than 60 mmHg within 2 hours of administration)”. Further, the “<60 mmHg @ 100X CFA MEMD” value in the data set on Male Sprague-Dawley rats [1] (setting [3]) was “+ (resulted in a maximum pCO2 value of less than 60 mmHg within 2 hours of administration)”. The compound also registered a Ki on μ-receptor below 1 nM. The same compound came in with an EC50 at human μ opioid receptor of 10 to 75 nM. Besides, in the data set with Male Sprague-Dawley rats [2] (setting [4]), the minimal effective dose was 0.1 mg/kg.
Regarding `COC1(c2cccc(C(N)=O)c2)C2CCCC1CN(CC1(O)CC1)C2.Cl` [Compound 46, 3-((1R,5S,9r)-3-((1-hydroxycyclopropyl)methyl)-9-methoxy-3-azabicyclo[3.3.1]nonan-9-yl)benzamide hydrochloride], the “<60 mmHg @ 10X CFA MEMD” value with Male Sprague-Dawley rats [1] (subcutaneous) is on record as “+ (resulted in a maximum pCO2 value of less than 60 mmHg within 2 hours of administration)”. This compound yielded a Ki at μ-receptor below 1 nM. This compound also returned an EC50 on human μ opioid receptor of 10 to 75 nM. Further, the minimal effective dose in the data set with Male Sprague-Dawley rats [2] (setting [4]) was determined as 1 mg/kg.
Consider `COC1(c2ccnc(C(N)=O)c2)C2CCCC1CN([C@@H]1CCCOC1)C2.Cl` (stereo partly drawn) [Compound 60, 4-((1R,5S,9R)-9-methoxy-3-((R)-tetrahydro-2H-pyran-3-yl)-3-azabicyclo[3.3.1]nonan-9-yl)picolinamide hydrochloride], for which the “<60 mmHg @ 10X CFA MEMD” value with Male Sprague-Dawley rats [1] (subcutaneous) is “+ (resulted in a maximum pCO2 value of less than 60 mmHg within 2 hours of administration)”. Besides, the “<60 mmHg @ 100X CFA MEMD” value in the data set on Male Sprague-Dawley rats [1] (setting [3]) is “+ (resulted in a maximum pCO2 value of less than 60 mmHg within 2 hours of administration)”. On μ-receptor, the Ki was in the range of 1 to 5 nM. At human μ opioid receptor, this compound had an EC50 above 75 nM. The minimal effective dose with Male Sprague-Dawley rats [2] (setting [4]) stood at 0.3 mg/kg.
Consider `COC1(c2ccnc(C(N)=O)c2)C2CCCC1CNC2.Cl` [Compound 70, 4-((1R,5S,9r)-9-methoxy-3-azabicyclo[3.3.1]nonan-9-yl)picolinamide hydrochloride], for which the “<60 mmHg @ 10X CFA MEMD” value in the data set on Male Sprague-Dawley rats [1] (subcutaneous) was “+ (resulted in a maximum pCO2 value of less than 60 mmHg within 2 hours of administration)”. Also, the “<60 mmHg @ 100X CFA MEMD” value with Male Sprague-Dawley rats [1] (setting [3]) is recorded as “+ (resulted in a maximum pCO2 value of less than 60 mmHg within 2 hours of administration)”. For the same compound, at μ-receptor, the Ki fell in the range of 1 to 5 nM. In addition, the concentration giving a half-maximal response (EC50) on human μ opioid receptor is above 75 nM. In the data set with Male Sprague-Dawley rats [2] (setting [4]), the minimal effective dose amounted to 1 mg/kg.
Regarding `COC1(c2ccnc(C(N)=O)c2)C2CCCC1CN([C@H]1CCOC1)C2.Cl` (stereo partly drawn) [Compound 79, 4-((1R,5S,9R)-9-methoxy-3-((R)-tetrahydrofuran-3-yl)-3-azabicyclo[3.3.1]nonan-9-yl)picolinamide hydrochloride], the “<60 mmHg @ 10X CFA MEMD” value in the data set with Male Sprague-Dawley rats [1] (subcutaneous) was “+ (resulted in a maximum pCO2 value of less than 60 mmHg within 2 hours of administration)”. The “<60 mmHg @ 100X CFA MEMD” value in the data set on Male Sprague-Dawley rats [1] (setting [3]) was “− (resulted in a maximum pCO2 value of greater than 60 mmHg within 2 hours of administration)”. The same compound had a Ki on μ-receptor of 1 to 5 nM. At human μ opioid receptor, this compound came in with an EC50 of 10 to 75 nM. For the same compound, in the data set with Male Sprague-Dawley rats [2] (setting [4]), the minimal effective dose amounted to 0.3 mg/kg.
Regarding `CCCN1CC2CCCC(C1)C2(OC)c1ccnc(C(N)=O)c1.Cl` [Compound 91, 4-((1R,5S,9r)-9-methoxy-3-propyl-3-azabicyclo[3.3.1]nonan-9-yl)picolinamide hydrochloride], the “<60 mmHg @ 100X CFA MEMD” value in the data set with Male Sprague-Dawley rats [1] (dosed at 10 mg/kg) is on record as “+ (dosed at 10 mg/kg) (resulted in a maximum pCO2 value of less than 60 mmHg within 2 hours of administration)”. In addition, at μ-receptor, the inhibitory constant (Ki) lay within 1 to 5 nM. Also, the EC50 on human μ opioid receptor was 10 to 75 nM. Further, the minimal effective dose in the data set on Male Sprague-Dawley rats [2] (po, minimum dose at which maximal reversal of hind paw weight bearing was achieved, dosed orally) worked out at 3 mg/kg.
Consider `COC1(c2ccnc(C(N)=O)c2)C2CCCC1CN(Cc1cnn[nH]1)C2.Cl` [Compound 108, 4-((1R,5S,9r)-3-((1H-1,2,3-triazol-5-yl)methyl)-9-methoxy-3-azabicyclo[3.3.1]nonan-9-yl)picolinamide hydrochloride], for which the “<60 mmHg @ 10X CFA MEMD” value with Male Sprague-Dawley rats [1] (subcutaneous) was “+ (resulted in a maximum pCO2 value of less than 60 mmHg within 2 hours of administration)”. In the data set with Male Sprague-Dawley rats [1] (setting [3]), the “<60 mmHg @ 100X CFA MEMD” value is on record as “+ (resulted in a maximum pCO2 value of less than 60 mmHg within 2 hours of administration)”. The Ki on μ-receptor was 1 to 5 nM. For the same compound, at human μ opioid receptor, the EC50 lay in the range of 10 to 75 nM. Besides, in the data set with Male Sprague-Dawley rats [2] (setting [4]), the minimal effective dose is 0.3 mg/kg.
As for `COC1(c2cccc(C(N)=O)c2)C2CCCC1CN(CC1CCOCC1)C2.Cl` [Compound 122, 3-((1R,5S,9r)-9-methoxy-3-((tetrahydro-2H-pyran-4-yl)methyl)-3-azabicyclo[3.3.1]nonan-9-yl)benzamide hydrochloride], in the data set on Male Sprague-Dawley rats [1] (subcutaneous), the “<60 mmHg @ 10X CFA MEMD” value is “+ (resulted in a maximum pCO2 value of less than 60 mmHg within 2 hours of administration)”. Also, on μ-receptor, the inhibitory constant (Ki) was 1 to 5 nM. The compound further had an EC50 on human μ opioid receptor of 10 to 75 nM. In addition, the minimal effective dose with Male Sprague-Dawley rats [2] (setting [4]) is 0.3 mg/kg.
Consider `COC1(c2ccnc(C(N)=O)c2)C2CCCC1CN(Cc1cn(C)cn1)C2.Cl` [Compound 123, 4-((1R,5S,9r)-9-methoxy-3-((1-methyl-1H-imidazol-4-yl)methyl)-3-azabicyclo[3.3.1]nonan-9-yl)picolinamide hydrochloride], for which the “<60 mmHg @ 10X CFA MEMD” value in the data set on Male Sprague-Dawley rats [1] (subcutaneous) is recorded as “+ (resulted in a maximum pCO2 value of less than 60 mmHg within 2 hours of administration)”. On μ-receptor, the Ki fell in the range of 1 to 5 nM. Further, the concentration giving a half-maximal response (EC50) at human μ opioid receptor fell in the range of 10 to 75 nM. Besides, in the data set on Male Sprague-Dawley rats [2] (setting [4]), the minimal effective dose is 1 mg/kg.
Taken in the same sequence, the figures for `COC1(c2ccnc(C(N)=O)c2)C2CCCC1CN(Cc1c[nH]c3ccccc13)C2.Cl` [Compound 126, 4-((1R,5S,9r)-3-((1H-indol-3-yl)methyl)-9-methoxy-3-azabicyclo[3.3.1]nonan-9-yl)picolinamide hydrochloride] were “− (resulted in a maximum pCO2 value of greater than 60 mmHg within 2 hours of administration)”, below 1 nM, below 10 nM and 0.1 mg/kg.
Regarding `COC1(c2ccnc(C(N)=O)c2)C2CCCC1CN(CC1CCOCC1)C2.Cl` [Compound 127, 4-((1R,5S,9r)-9-methoxy-3-((tetrahydro-2H-pyran-4-yl)methyl)-3-azabicyclo[3.3.1]nonan-9-yl)picolinamide hydrochloride], the “<60 mmHg @ 10X CFA MEMD” value in the data set with Male Sprague-Dawley rats [1] (subcutaneous) was “+ (resulted in a maximum pCO2 value of less than 60 mmHg within 2 hours of administration)”. In addition, in the data set on Male Sprague-Dawley rats [1] (setting [3]), the “<60 mmHg @ 100X CFA MEMD” value is given as “+ (resulted in a maximum pCO2 value of less than 60 mmHg within 2 hours of administration)”. On μ-receptor, this compound came in with a Ki of 1 to 5 nM. Besides, the EC50 on human μ opioid receptor lay in the range of 10 to 75 nM. In the data set on Male Sprague-Dawley rats [2] (setting [4]), the minimal effective dose stood at 0.1 mg/kg.
With `COC1(c2cccc(C(N)=O)c2)C2CCCC1CN(C1CC3(COC3)C1)C2.O=C(O)CC(O)C(=O)O` [Compound 133, 3-((1R,5S,9r)-9-methoxy-3-(2-oxaspiro[3.3]heptan-6-yl)-3-azabicyclo[3.3.1]nonan-9-yl)benzamide (S)-2-hydroxysuccinate], the “<60 mmHg @ 10X CFA MEMD” value in the data set on Male Sprague-Dawley rats [1] (subcutaneous) is “+ (resulted in a maximum pCO2 value of less than 60 mmHg within 2 hours of administration)”. In addition, at μ-receptor, the inhibition constant Ki is below 1 nM. Further, the EC50 on human μ opioid receptor was below 10 nM. In the data set on Male Sprague-Dawley rats [2] (setting [4]), the minimal effective dose came to 1 mg/kg.
`COC1(c2ccnc(C(N)=O)c2)C2CCCC1CN(C1CCC3(CC1)COC3)C2.O=C(O)CC(O)C(=O)O` [Compound 158, 4-((1R,5S,9r)-9-methoxy-3-(2-oxaspiro[3.5]nonan-7-yl)-3-azabicyclo[3.3.1]nonan-9-yl)picolinamide (S)-2-hydroxysuccinate]: the “<60 mmHg @ 10X CFA MEMD” value with Male Sprague-Dawley rats [1] (subcutaneous) is “+ (resulted in a maximum pCO2 value of less than 60 mmHg within 2 hours of administration)”. Moreover, in the data set with Male Sprague-Dawley rats [1] (setting [3]), the “<60 mmHg @ 100X CFA MEMD” value was “+ (resulted in a maximum pCO2 value of less than 60 mmHg within 2 hours of administration)”. In addition, at μ-receptor, the Ki lay within 1 to 5 nM. The compound further yielded a half-maximal effective concentration (EC50) on human μ opioid receptor of 10 to 75 nM. For the same compound, in the data set with Male Sprague-Dawley rats [2] (setting [4]), the minimal effective dose was 0.1 mg/kg.
